Source: PubChem BioAssay (NCI)
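Method: 48-hour compound exposure of cells in 96-well plates, five concentrations, linear interpolation of endpoints. GI50: concentration for 50% inhibition of growth. The concentration for full growth arrest is given as TGI.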

Assays:
Experiment in all cases: NCI tumour cell line growth inhibition, 48 h
A498 renal = test system: A498 renal
CAKI-1 renal = test system: CAKI-1 renal
HCT-15 colon = test system: HCT-15 colon
NCI-H460 lung = test system: NCI-H460 lung
RPMI-8226 leukemia = test system: RPMI-8226 leukemia
RXF 393 renal = test system: RXF 393 renal
SK-MEL-5 melanoma = test system: SK-MEL-5 melanoma
SNB-75 CNS = test system: SNB-75 CNS
UACC-257 melanoma = test system: UACC-257 melanoma
NCI-H226 lung = test system: NCI-H226 lung

Structure (SMILES) | TGI (A498 renal) [µM] | TGI (CAKI-1 renal) [µM] | TGI (HCT-15 colon) [µM] | TGI (NCI-H460 lung) [µM] | TGI (RPMI-8226 leukemia) [µM] | TGI (RXF 393 renal) [µM] | TGI (SK-MEL-5 melanoma) [µM] | TGI (SNB-75 CNS) [µM] | TGI (UACC-257 melanoma) [µM] | TGI (NCI-H226 lung) [µM] | GI50 (CAKI-1 renal) [µM] | GI50 (HCT-15 colon) [µM] | GI50 (NCI-H226 lung) [µM] | GI50 (NCI-H460 lung) [µM] | GI50 (RXF 393 renal) [µM] | GI50 (SNB-75 CNS) [µM] | GI50 (UACC-257 melanoma) [µM] | GI50 (A498 renal) [µM] | GI50 (RPMI-8226 leukemia) [µM] | GI50 (SK-MEL-5 melanoma) [µM]
CC(CCCOC(c1ccccc1)(c1ccccc1)c1ccccc1)OC(=O)Nc1cc([N+](=O)[O-])cc([N+](=O)[O-])c1 (configuration not stated) | 72.3 | 72.1 | > 100 | 73.2 | > 100 | > 100 | 44.6 | 72.5 | 85.1 |  |  |  |  |  |  |  |  |  |  | 
N#Cc1ccccc1NC(=O)c1ccccc1 | > 100 | > 100 | > 100 | > 100 | > 100 | > 100 | > 100 | > 100 | > 100 |  |  |  |  |  |  |  |  |  |  | 
COC(=O)[C@]1(C)CCC[C@@]2(C)C1CCC1=C[C@@]3(C(C)C)CC[C@]12OO3 (some centres not stated) | 67 |  | > 100 | 56.5 | 47 |  | 33.3 |  | > 100 | 51.2 |  |  |  |  |  |  |  |  |  | 
COc1ccc(-c2ccc(/C=N/n3c(COc4ccc(Cl)cc4)n[nH]c3=S)o2)c([N+](=O)[O-])c1 |  | 22.2 | 45.8 | 32.8 |  | 32.3 |  | > 100 | 51.4 | 57.8 | 3.96 | 16 | 13.5 | 13 | 12.7 | 37.4 | 15.9 |  |  | 
COc1ccc2cc3n(c2c1)CCc1cc(OC)c(OC)cc1-3 | > 100 | > 100 |  | > 100 |  | > 100 |  |  | > 100 | > 100 |  |  |  |  |  |  |  |  |  | 
O=c1cccccc1NCCCCCCCCCNc1cccccc1=O |  | > 100 | 39.9 | 27.7 | 22.3 | 79.3 |  | 62.9 | 7.35 | 43.4 |  |  |  |  |  |  |  |  |  | 
FC(F)(F)c1ccc2nc(Nc3ccc(Cl)c(Cl)c3)c(-c3ccccc3)nc2c1 |  |  | > 100 | > 100 | > 100 | > 100 |  |  | > 100 | > 100 |  |  |  |  |  |  |  |  |  | 
CN(C)C(=O)C1CCC(=C2C(=O)OC(C)(C)OC2=O)N1C (configuration not stated) | > 100 | > 100 | > 100 | > 100 |  | > 100 | > 100 | > 100 | > 100 | > 100 |  |  |  |  |  |  |  |  |  | 
Cc1cn2c(/C=N/N/C(N)=N\N)c(-c3ccc(Cl)c([N+](=O)[O-])c3)nc2s1 | 21.5 | 17.6 | 2.04 |  | > 50 |  | 16.4 |  | 4.87 |  | 8.49 | 0.968 |  |  |  |  | 1.41 | 7.58 | 4.54 | 4.29
C[C@H](CSC(=O)c1ccccc1)C(=O)N1c2ccccc2C[C@H]1C(=O)O | > 100 | > 100 | > 100 | > 10 |  |  | > 100 | > 100 | > 100 | > 100 |  |  |  |  |  |  |  |  |  | 
CN(C)CCNC(=O)c1ccc(Cl)c2c(Nc3ccc(S(N)(=O)=O)cc3)c3ccccc3nc12 | 13.4 | 17.1 | 15.5 | 7.28 | 29.1 |  | 11.8 | 4.72 | 12.7 | 4.56 |  |  |  |  |  |  |  |  |  | 
